Legend:
Assay type in all cases: in vivo
weeds = test: Activity test of the compositions, soil sealing treatment; conditions: Echinochloa crus-galli, 504 h, Echinochloa crusgalli, soil treatment (S), 21 days, read-out: Control effect (%) of B applied alone (B)
In short: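 Pre-emergence soil spray at 450 kg/ha, 0.3 MPa, applied 72 h after sowing pre-germinated seeds, 20 seeds per pot, 4 pots, 4 repeats; actives in acetone diluted with 0.10% Tween-80. Greenhouse, 20 to 30° C; surviving weed fresh weight measured 21 days after treatment.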

Abutilon theophrasti = test: Weeding effect in post-emergence stage; conditions: 720 g a.i./ha, 3 weeks after application
Excerpt: (§1) The activity level criteria for plant damage (i.e., growth control rate) are as follows:
(§2) The above growth control rates are fresh weight control rates.
(§3) Monocotyledonous and dicotyledonous weed seeds (Descurainia sophia, Capsella bursa-pastoris, Abutilon theophrasti, Galium aparine, Stellaria media, Lithospermum arvense, Rorippa indica, Alopecurus aequalis, Alopecurus japonicus, Eleusine indica, Beckmannia syzigachne, Sclerochloa dura, Phleum paniculatum, Veronica didyma, Bromus japonicus, Aegilops tauschii, Phalaris arundinacea, Amaranthus retroflexus, Chenopodiaceae, Commelina communis, Sonchus arvensis, Convolvulus arvensis, Cirsium setosum, Solanumnigrum, Acalypha australis, Digitaria sanguinalis, Echinochloa crusgalli, Setaria viridis, Setaria glauca, Leptochloa chinensis, Monochoria vaginalis, Sagittaria trifolia, Scirpus juncoides, Cyperus rotundus, Cyperus iria, Cyperus difformis, Fimbristylis, Portulaca oleracea, Xanthium sibiricum, Pharbitis nil, Conyza Canadensis, etc.) and major crop seeds (wheat, corn, rice, soybean, cotton, oilseed rape, millet, sorghum, potato, sesame, ricinus, etc.) were placed in plastic pots filled with soil, then covered with 0.5-2 cm of soil, allowed to grow in a good greenhouse environment. Two weeks after sowing, the test plants were treated in the 2-3 leaf stage. The tested compounds of the present invention were respectively dissolved in acetone, then added with Tween 80 and 1.5 liter/ha of emulsifiable concentrate of methyl oleate as synergist, diluted with a certain amount of water to obtain a solution of a certain concentration, and sprayed by a spray tower onto the plants. After the application, the plants were cultured for 3 weeks in the greenhouse, and then the experimental results of the weeding were recorded. The doses of the used compounds were 45, 90, 180, 360, 720 g a.i./ha, and the averages were obtained from three replicates.

Alopecurus japonicus = test: Weeding effect in post-emergence stage; conditions: 720 g a.i./ha, 3 weeks after application
Excerpt: as §1, §2, §3

Leptochloa chinensis [1] = test: Weeding effect in post-emergence stage; conditions: 720 g a.i./ha, 3 weeks after application
Excerpt: as §1, §2, §3

Digitaria sanguinalis = test: Weeding effect in post-emergence stage; conditions: 720 g a.i./ha, 3 weeks after application
Excerpt: as §1, §2, §3

Descurainia sophia = test: Weeding effect in pre-emergence stage; conditions: 2 weeks
Excerpt: as §1, §2
(§4) Monocotyledonous and dicotyledonous weed seeds (Descurainia sophia, Capsella bursa-pastoris, Abutilon theophrasti, Galium aparine, Stellaria media, Lithospermum arvense, Rorippa indica, Alopecurus aequalis, Alopecurus japonicus, Eleusine indica, Beckmannia syzigachne, Sclerochloa dura, Phleum paniculatum, Veronica didyma, Bromus japonicus, Aegilops tauschii, Phalaris arundinacea, Amaranthus retroflexus, Chenopodiaceae, Commelina communis, Sonchus arvensis, Convolvulus arvensis, Cirsium setosum, Solanumnigrum, Acalypha australis, Digitaria sanguinalis, Echinochloa crusgalli, Setaria viridis, Setaria glauca, Leptochloa chinensis, Monochoria vaginalis, Sagittaria trifolia, Scirpus juncoides, Cyperus rotundus, Cyperus iria, Cyperus difformis, Fimbristylis, Portulaca oleracea, Xanthium sibiricum, Pharbitis nil, Conyza Canadensis, etc.) and major crop seeds (wheat, corn, rice, soybean, cotton, oilseed rape, millet, sorghum, potato, sesame, ricinus, etc.) were placed in plastic pots filled with soil, then covered with 0.5-2 cm of soil, allowed to grow in a good greenhouse environment. The test plants were treated on the day of sowing. The tested compounds of the present invention were respectively dissolved in acetone, then added with Tween 80, diluted with a certain amount of water to obtain a solution of a certain concentration, and sprayed by a spray tower onto the plants. After the application, the plants were cultured for 2 weeks in the greenhouse, and then the experimental results of the weeding were recorded. The doses of the used compounds were 3, 6, 12, 24, 48 g ai./mu (1 mu=1/15 ha), and the averages were obtained from three replicates.

Leptochloa chinensis [2] = test: Weeding effect in pre-emergence stage; conditions: 2 weeks
Excerpt: as §1, §2, §4

Veronica didyma = test: Weeding effect in pre-emergence stage; conditions: 2 weeks
Excerpt: as §1, §2, §4

Echinochloa crusgalli = test: Weeding effect in pre-emergence stage; conditions: 2 weeks
Excerpt: as §1, §2, §4

Lolium perenne = test: Weeding effect in pre-emergence stage; conditions: 2 weeks
Excerpt: as §1, §2, §4

Cirsium setosum = test: Activity test of the compositions, post-emergence treatment by foliage spray; conditions: foliage (F)
Protocol: The desired active ingredient B was purchased from a reagent company or synthesized by a known method. The technical materials were all dissolved in acetone and diluted with an aqueous solution containing 0.10% emulsifier Tween-80 which were to be used immediately after dilution.
Weeds were cultivated by a pot culture method. […] Weed seeds with plump and uniform grains were selected, soaked in lukewarm water at 25° C. for 6 hours, and germinated in a 28° C. biochemical incubator (in darkness). The weed seeds that had just germinated were evenly placed on the surface of the soil and then covered with 0.5-1 cm soil according to the sizes of seeds.
The culture was carried out in a controllable sunlight greenhouse at 20 to 30° C., in natural light, and with relative humidity of 57% to 72%.
Each treatment was repeated 4 times. Four pots with 20 weed seeds per pot were treated each time.
The agents were used for only once in total in the experiment. In the stage of 1.5-2 leaves, the weeds were thinned out to maintain 10 weeds per pot. Ten weeds were kept in each treatment, then continued to be cultured until Echinochloa crus-galli var. zelayensis reached the stage of 2-3 leaves, Cirsium setosum reached the stage of 5-6 leaves, Galium aparine reached the stage of 3-4 whorl leaves, Amaranthus retroflexus reached the stage of 3-5 leaves, Echinochloa crusgalli, Lolium multiflorum and Digitaria sanguinalis reached the stage of 3 leaves with one leaf not fully expanding for further treatment.
The well-cultured test materials were evenly placed on a platform with an area of 0.5 m^2, and solution of agents was sprayed on the stems and leaves thereof by the 3WP-2000-type walking spray tower at a dosage of 450 kg/ha and at a spray pressure of 0.3 MPa. After all the solution was sprayed, the valve was closed. After 30 seconds, the door of the spray tower was opened, and the nutritional bowl was taken out. Then the valve was opened, and the spray tube was cleaned by spraying 50 ml of water. After the treatment, the weeds were routinely cultured in a greenhouse.
A method for investigating absolute numbers was employed. Whole seedlings of survival weeds were cut off with a blade along the soil surface, and the fresh weight of the weeds was weighed with an analytical balance. For dead weeds, the fresh weight thereof was zero.
The investigation was performed 21 days after the treatment for only once in total.

SMILES: CC1(C)CON(Cc2ccccc2Cl)C1=O [Control compound B, clomazone]
- pest or weed control at 30 g/ha (weeds; B at 2 g a.i./mu): 33.2%
- pest or weed control at 60 g/ha (weeds; B at 4 g a.i./mu): 46.8%
- weeding effect in post-emergence stage, activity level (growth control rate) (Abutilon theophrasti): 3 (Level 3: growth control rate is greater than or equal to 40% and less than 60%)
- weeding effect in post-emergence stage, activity level (growth control rate) (Alopecurus japonicus): 4 (Level 4: growth control rate is greater than or equal to 60% and less than 85%)
- weeding effect in post-emergence stage, activity level (growth control rate) (Leptochloa chinensis [1]): 4 (Level 4: growth control rate is greater than or equal to 60% and less than 85%)
- weeding effect in post-emergence stage, activity level (growth control rate) (Digitaria sanguinalis): 3 (Level 3: growth control rate is greater than or equal to 40% and less than 60%)
- weeding effect in pre-emergence stage, activity level (growth control rate) (Descurainia sophia; 3 g a.i./mu): 2 (Level 2: growth control rate is greater than or equal to 15% and less than 30%)
- weeding effect in pre-emergence stage, activity level (growth control rate) (Descurainia sophia; 6 g a.i./mu): 3 (Level 3: growth control rate is greater than or equal to 30% and less than 40%)
- weeding effect in pre-emergence stage, activity level (growth control rate) (Descurainia sophia; 12 g a.i./mu): 7 (Level 7: growth control rate is greater than or equal to 70% and less than 80%)
- weeding effect in pre-emergence stage, activity level (growth control rate) (Descurainia sophia; 24 g a.i./mu): 7 (Level 7: growth control rate is greater than or equal to 70% and less than 80%)
- weeding effect in pre-emergence stage, activity level (growth control rate) (Leptochloa chinensis [2]; 3 g a.i./mu): 0
- weeding effect in pre-emergence stage, activity level (growth control rate) (Leptochloa chinensis [2]; 6 g a.i./mu): 4 (Level 4: growth control rate is greater than or equal to 40% and less than 50%)
- weeding effect in pre-emergence stage, activity level (growth control rate) (Leptochloa chinensis [2]; 12 g a.i./mu): 9
- weeding effect in pre-emergence stage, activity level (growth control rate) (Leptochloa chinensis [2]; 24 g a.i./mu): 9
- weeding effect in pre-emergence stage, activity level (growth control rate) (Veronica didyma; 6 g a.i./mu): 8 (Level 8: growth control rate is greater than or equal to 80% and less than 100%)
- weeding effect in pre-emergence stage, activity level (growth control rate) (Veronica didyma; 12 g a.i./mu): 9
- weeding effect in pre-emergence stage, activity level (growth control rate) (Veronica didyma; 24 g a.i./mu): 9
- weeding effect in pre-emergence stage, activity level (growth control rate) (Echinochloa crusgalli; 3 g a.i./mu): 8 (Level 8: growth control rate is greater than or equal to 80% and less than 100%)
- weeding effect in pre-emergence stage, activity level (growth control rate) (Echinochloa crusgalli; 6 g a.i./mu): 9
- weeding effect in pre-emergence stage, activity level (growth control rate) (Echinochloa crusgalli; 12 g a.i./mu): 9
- weeding effect in pre-emergence stage, activity level (growth control rate) (Echinochloa crusgalli; 24 g a.i./mu): 9
- weeding effect in pre-emergence stage, activity level (growth control rate) (Lolium perenne; 6 g a.i./mu): 1 (Level 1: growth control rate is greater than 0% and less than 15%)
- weeding effect in pre-emergence stage, activity level (growth control rate) (Lolium perenne; 24 g a.i./mu): 9

SMILES: CC(C)N1C(=O)c2ccccc2NS1(=O)=O [bentazon]
- Control effect (%) of B applied alone (B) (Cirsium setosum; B 8 g a.i./mu): 12.4%
- Control effect (%) of B applied alone (B) (Cirsium setosum; B 16 g a.i./mu): 25.8%

From US20240327359A1, “3-ISOXAZOLIDINONE COMPOUND, PREPARATION METHOD, HERBICIDAL COMPOSITION AND APPLICATION THEREOF” (QINGDAO KINGAGROOT CHEMICAL COMPOUND CO., LTD., priority 2021, published 2024)
